Assay results published in US10420813B2, “Competitive inhibitors of invariant chain expression and/or ectopic clip binding” (Regents of the University of Colorado, a body corporate, priority 2007, dated 2019).
No end group written: not given here.

Columns and labels:
Daudi cells = assay: Binding of biotinylated peptide to cells (Streptavidin-PE); format: cell-based, human; settings: 50 microMolar
Description: (§1) The ability of synthetic peptides to compete with binding of CLIP peptides and result in the cell surface expression of CD1d was determined.
(§2) Results: The results shown in FIG. 5 are expressed in histogram analyses. The Y axis represents cell number of the 5000 live cells versus the X axis which is a reflection of relative Fitc fluorescence versus Streptavidin-PE (eBioscience, Cat. #12-4317) that will bind with high affinity to cell-bound biotinylated peptides. The distance between the histogram from the isotype control staining versus the histogram reflecting the specific stain and is a measure of level of cell surface CD1d.
(§3) Cell Culture Conditions: The Raji and Daudi cell lines were purchased from American Type Culture Collection, were thawed, and grown in RPMI 1640 medium supplemented with standard supplements, including 10% fetal calf serum, gentamycin, penicillin, streptomycin, sodium pyruvate, HEPES buffer, 1-glutamine, and 2-ME.
(§4) Protocol: Cells were plated into a 12 well plate with 3 mls total volume containing approximately 1.5×10^6/well for Daudi cells and 3.0×10^6/well for Raji cells. Treatment groups included no treatment as control and biotinylated […] (SEQ ID NO: 2) (also referred to as MKN 5) at 50 microMolar final concentration based on the reported molarity of the synthesized compounds.
(§5) The cells were incubated at 37° C. in an atmosphere containing 5% CO2 and approximately 92% humidity. The cells were incubated for 4 and 24 hours. At each time point, the cells from that experimental time were harvested and stained for flow cytometric analysis of cell surface expression of CD1d by staining with PE anti-human CD1d (eBioscience, clone 51.5, cat. #12-00016-71).
(§6) Harvested cells were stained using standard staining procedure that called for a 1:100 dilution of PE anti-CD1d. Following staining on ice for 25 minutes, cells were washed with PBS/FCS and resuspended in 100 microliters and added to staining tubes containing 400 microliters of PBS. Samples were acquired and analyzed on a Coulter Excel Flow Cytometer.

Raji cells = assay: as above; format: cell-based, human; settings: 50 microMolar
Description: as §1, §2, §3, §4, §5, §6

[1] = tested on: cell surface CD1d on Daudi cells; assay: Cell surface expression of CD1d; format: cell-based, human; settings: 50 microMolar
Description: as §1, §2, §3, §4, §5, §6

[2] = tested on: cell surface CD1d on Raji cells; assay: Cell surface expression of CD1d; format: cell-based, human; settings: 50 microMolar
Description: as §1, §2, §3, §4, §5, §6

[3] = background statement; cited from earlier work
[4] = tested on: cell surface CLIP on Daudi cells; assay: Cell surface CLIP by flow cytometry; format: cell-based, human; settings: 24 and 48 hours
Description: (§7) Kinetics of CLIP displacement from the surface of model B cells lines (Daudi and Raji) in response to thymic nuclear protein mixture was determined.
(§8) Results were expressed in histogram analyses (FIG. 3). The Y axis represents cell number of the 5000 live cells versus the X axis which is a reflection of relative Fitc fluorescence. The distance between the histogram from the isotype control staining versus the histogram reflecting the specific stain is a measure of level of cell surface CLIP on a population of live Raji or Daudi cells as indicated. […]
(§9) Harvested cells were stained using standard staining procedure that called for a 1:100 dilution of Fitc-anti-human CLIP or isotype control. […] Samples were acquired and analyzed on a Coulter Excel Flow Cytometer.
(§10) The ability of MKN1 (bioCLIP) to alter cell surface CLIP and CD74 levels was determined using Raji or Daudi cells.
(§11) Data were analyzed by histogram with Y axis represents cell number of the 5000 live cells versus the X axis which is a reflection of relative FITC fluorescence with either antibodies to CLIP or CD74. […]
(§12) Harvested cells were stained using standard staining procedure that called for a 1:100 dilution of Fitc-anti-human CLIP or CD74 antibody (Fitc, Pharmingen, Cat #554647) or isotype control. […] Samples were acquired and analyzed on a Coulter Excel Flow Cytometer. […]

[5] = tested on: cell surface CLIP on Raji cells; assay: Cell surface CLIP by flow cytometry; format: cell-based, human; settings: 24 and 48 hours
Description: as §7, §8, §9, §10, §11, §12

[6] = tested on: cell surface CD74 on Daudi cells; assay: Cell surface CD74 by flow cytometry; format: cell-based, human; settings: 24 and 48 hours
Description: as §10
(§13) Data were analyzed by histogram with Y axis represents cell number of the 5000 live cells versus the X axis which is a reflection of relative FITC fluorescence with either antibodies to CLIP or CD74. The distance between the histogram from the isotype control staining versus the histogram reflecting the specific stain and is a measure of level of cell surface CLIP or CD74 when staining a population of live Raji or Daudi cells.
as §3
(§14) Protocol: Cells were plated into a 12 well plate with 3 mls total volume containing approximately 0.5×10^6/mL for Daudi cells and 0.5×10^6/mL for Raji cells. […]
(§15) Harvested cells were stained using standard staining procedure that called for a 1:100 dilution of Fitc-anti-human CLIP or CD74 antibody (Fitc, Pharmingen, Cat #554647) or isotype control. […] Samples were acquired and analyzed on a Coulter Excel Flow Cytometer.

[7] = tested on: cell surface CD74 on Raji cells; assay: Cell surface CD74 by flow cytometry; format: cell-based, human; settings: 24 and 48 hours
Description: as §10, §13, §3, §14, §15

Biotinylated FRIMAVLAS: biotinylated FRIMAVLAS (SEQ ID NO: 2), also referred to as MKN 5 (also: biotinylated, position not given here)
binding of biotinylated peptide to cells (Daudi cells; 4 hours): bound with high affinity
binding of biotinylated peptide to cells (Daudi cells; 24 hours): Less binding
binding of biotinylated peptide to cells (Raji cells; 4 hours): bound with high affinity
binding of biotinylated peptide to cells (Raji cells; 24 hours): Less binding
cell surface expression of CD1d ([1]; 4 hours): marginally
cell surface expression of CD1d ([1]; 24 hours): slightly more
cell surface expression of CD1d ([2]; 4 hours): marginally
cell surface expression of CD1d ([2]; 24 hours): slightly more

C=CC[C@@H]1/C=C(\C)C[C@H](C)C[C@H](OC)[C@H]2O[C@@](O)(C(=O)C(=O)N3CCCC[C@H]3C(=O)O[C@H](/C(C)=C/[C@@H]3CC[C@@H](O)[C@H](OC)C3)[C@H](C)[C@@H](O)CC1=O)[C@H](C)C[C@@H]2OC [FK506, tacrolimus]
immunosuppressive activity relative to cyclosporin [3]: 10-100 times greater than cyclosporin

SGG GSK MRM ATP LLM QAL Y [MKN1 (bioCLIP)]
cell surface CLIP level [4]: alters
cell surface CLIP level [5]: alters
cell surface CD74 level [6]: alters
cell surface CD74 level [7]: alters
